Data taken from US20150337349A1, “Microbiome Modulation Index” (SECOND GENOME, INC., priority 2013, published 2015).
Structures can show the parent of a compound that is named as a salt.

System: fecal microbial communities (OTUs)
Assay: Microbiome Modulation Index (MMI) from 16S rRNA V4 profiling of fecal samples before and after agent administration
Assay type: in vivo, c57bl/6 mice
Conditions: oral gavage daily for 5 consecutive days at Table 1 mouse dose; day 0 vs day 5 fecal samples; MMI = d/d0 relative to control mice; variability weight gi applied
Description: Twenty five agents were selected to span multiple indications (Table 1). For each agent, the effective dose for the mouse was determined through a comprehensive search of the literature (Table 1). Working formulations were created by suspending agents in 1× phosphate buffered saline (PBS).
A total of 156 six-week old c57bl/6 mice (78 males and 78 females) were housed in separate cages 5 days prior to agent administration. Animals were handled daily by caretakers during this acclimation period. Animals were fed a standard chow diet throughout the course of the study.
Animals were treated with agents via oral gavage daily for 5 consecutive days beginning on day 1. N=6 mice per agent; 3 male+3 female. Fecal samples were collected using the ‘clean catch’ method in which the mice were held by the tail, causing them to defecate. Feces were collected in a sterile tube and immediately frozen and stored at −80° C. Fecal samples were collected in the morning prior to agent administration on the following days: −1,0,4,5.
Frozen day 0 and day 5 fecal specimens corresponding to 15 treatment groups (PBS+(Table 3) were profiled using Second Genome's Microbiome Signature Discovery™ service (San Bruno, Calif.). DNA was isolated using the PowerSoil DNA Isolation Kit following the manufacturer's instructions (MoBio Laboratories, Carlsbad, Calif.). For V4 sequencing assay profiling, the V4 region of the 16S rRNA genes was amplified using fusion primers tailed with Illumina sequencing adapters and indexing barcodes according to a previously described technique (Caporaso, 2010, PMID: 20534432). For each sample, amplified products were concentrated, purified and quantified by electrophoresis using an Agilent 2100 Bioanalyzer, then pooled for sequencing using the MiSeq (Illumina, San Diego, Calif.) instrument.
Using the software QIIME (Kuczynski, 2012, PMID: 23184592) and custom scripts, sequences were quality filtered and de-multiplexed using exact matches to the supplied DNA barcodes. Resulting sequences were then clustered into reference OTUs (rOTUs) by uclust (Edgar, 2010, PMID: 20709691) matching each sequence against the Greengenes sequences pre-clustered at 97%, a practice commonly referred to as “closed-reference OTU picking”. The longest Illumina-generated sequence from each of OTUs thus formed was then used as the OTU representative sequence, and assigned taxonomic classification via mothur's bayesian classifier (Schloss, 2009, PMID: 19801464) trained against the Greengenes database. Taxonomic annotations at 80% bootstrapped confidence were applied. Total sequence counts per fecal sample were scaled to be identical. Seven samples (MDO5M027D0, MD10M057D0, Md12F07D0, MD01F006D5, MD06F035D5, MD13M074D5, and MD04F023D5) were excluded following sequence quality filtering and alignment due to low sequence yield. Taxa were filtered to those present in at least one of the samples.
MMIs were calculated for the PBS control and 14 of the tested drugs. To calculate the MMI of an agent, an intermediate value d was calculated for each mouse administered with the respective agent. The abundance of each OTU before treatment in that mouse was compared to the abundance of that OTU after treatment as in exemplary Equation 11: […]
where A1i represents the abundance of OTU i at time-point 1 (post-administration), where A0i represents the abundance of OTU i at time-point 0 (pre-administration) gi represents a variability weight applied to each OTU, discussed below.
Once d was calculated for each mouse, d values for each administered mouse are averaged, and the resulting d was compared to a reference level of change d0 in a control group of mice not administered the agent. The value d0 is determined on the basis of laboratory studies of untreated mice in similar conditions (e.g., a similar number of samples to the number of samples obtained from treated mice).
The MMI is then calculated as in exemplary Equation 12: […]

In order of rising MMI:
1. OC(Cn1cncn1)(Cn1cncn1)c1ccc(F)cc1F [Fluconazole]  1.003
2. CC(=O)Oc1ccccc1C(=O)O [Acetylsiacylic_acid]  1.093
3. COc1ccc2[n-]c([S@@+]([O-])Cc3ncc(C)c(OC)c3C)nc2c1.COc1ccc2[n-]c([S@@+]([O-])Cc3ncc(C)c(OC)c3C)nc2c1.[Mg+2] [Esomeprazole_magnesium_hydrate]  1.1
4. NCCCC(O)(P(=O)(O)O)P(=O)(O)O [Alendronate_sodium_trihydrate]  1.107
5. Nc1ccc(O)c(C(=O)O)c1 [Mesalamine]  1.131
6. CN(C)CCOC(c1ccccc1)c1ccccc1 [Diphenhydramine_hydrochloride]  1.202
7. CCN(CC)CCOC(=O)C1(C2CCCCC2)CCCCC1 [Dicyloamine_hydrochloride]  1.222
8. C[C@]12C=CC(=O)C=C1CC[C@@H]1[C@@H]2[C@@H](O)C[C@@]2(C)[C@H]1CC[C@]2(O)C(=O)COC(=O)CCC(=O)[O-].[Na+] [Prednisalone_21-hemisuccinate_sodium_salt]  1.262
9. CC(C)c1c(C(=O)Nc2ccccc2)c(-c2ccccc2)c(-c2ccc(F)cc2)n1CC[C@@H](O)C[C@@H](O)CC(=O)O [Atorvastatin_calcium_salt_trihydrate]  1.278
10. CNCCC(Oc1ccc(C(F)(F)F)cc1)c1ccccc1 (centres unmarked) [Fluoxetine_hydrochloride]  1.44
11. Cc1ccc(-c2nc3ccc(C)cn3c2CC(=O)N(C)C)cc1 [Zolpidem_tartrate]  1.443
12. CN(C)C(=N)N=C(N)N [Metformin_hydrochloride]  1.628
13. CC[C@H]1OC(=O)[C@H](C)[C@@H](O[C@H]2C[C@@](C)(OC)[C@@H](O)[C@H](C)O2)[C@H](C)[C@@H](O[C@@H]2O[C@H](C)C[C@H](N(C)C)[C@H]2O)[C@](C)(O)C[C@@H](C)CN(C)[C@H](C)[C@@H](O)[C@]1(C)O [Azithromycin]  2.202
14. CC1(C)S[C@@H]2[C@H](NC(=O)[C@H](N)c3ccc(O)cc3)C(=O)N2[C@H]1C(=O)O [Amoxycillin]  2.397
